In one experiment the target is T1, MycN protein (Homo sapiens, UniProt P04198).
T1 construct: either 2×10^6 of L-363 (human leukemia cell line) or SKNBE2 (neuroblastoma cell line) cells; endogenous in cells; host or cells: SKNBE2 / SK-N-BE(2) neuroblastoma cells
T1 sequence (P04198 1-464): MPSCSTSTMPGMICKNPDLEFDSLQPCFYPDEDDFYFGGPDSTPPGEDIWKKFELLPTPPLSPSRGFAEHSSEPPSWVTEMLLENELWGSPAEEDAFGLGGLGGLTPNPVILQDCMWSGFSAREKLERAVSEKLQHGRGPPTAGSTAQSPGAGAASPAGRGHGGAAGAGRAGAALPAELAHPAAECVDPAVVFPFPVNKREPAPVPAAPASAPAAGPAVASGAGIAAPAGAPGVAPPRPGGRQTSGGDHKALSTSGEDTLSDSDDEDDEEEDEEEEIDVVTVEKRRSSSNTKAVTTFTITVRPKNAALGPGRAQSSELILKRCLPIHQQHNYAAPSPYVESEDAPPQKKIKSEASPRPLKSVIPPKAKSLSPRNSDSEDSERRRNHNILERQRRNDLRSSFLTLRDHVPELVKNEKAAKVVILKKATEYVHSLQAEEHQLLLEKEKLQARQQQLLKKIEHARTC
Kind of experiment: Degradation of MycN protein, Western blot, SKNBE2 cells (Example 160). Format: cell-based. The method, then: (§1) In a T150 flask was plated either 2×10^6 of L-363 (human leukemia cell line) or SKNBE2 (neuroblastoma cell line) cells in a total of 30 mL containing Roswell Park Memorial Institute (RPMI) 1640 Medium (Thermo Fisher, Cat. #11875-085), 10% Fetal Bovine Serum (FBS, Thermo Fisher: Cat. #10437-028), 1% Penicillin/streptomycin (Thermo Fisher: Cat. #10378016), and 1% Amophotericin B (Thermo Fisher, Cat. #15290026). The cells were split every 72 hours by reseeding the L-363 or SKNBE2 cells, and the passage number was noted. It is noteworthy that cell cultures that were above 40 passages were not used, and most experiments were done with cells of less than 30 passages.
(§2) In a 6-well cell culture plate, a total of 3 mL of either 1×10^6 cells/mL of L-363 or SKNBE2 cells were seeded, resulting in a total of 3×10^6 cells per well. To each well containing 3 mL of either L-363 or SKNBE2 cell line was added 6 uL of MycN modulating compound (1 mM) and the resulting plate was shaken from left to right, and not swirled. After 6 hours, the cells were placed in a 15 mL falcon tube and spun at 500 Gs at 4° C. in a swinging bucket centrifuge. The medium was then carefully removed without disturbing the pellet. The pellet was then washed with 3 mLs of chilled phosphate buffered saline (PBS) and subjected to the spin cycle. PBS was then removed and the pellet was lysed in 200 uL of radioimmunoprecipitation (RIPA) lysis buffer (Thermo Fisher: Cat. #899000) that is supplemented with protease and phosphatase inhibitors (Thermo Fisher: Cat. #A32959). The cell lysate was then subjected to spinning in a centrifuge for 10 minutes at 13000 G at 4° C. The supernatant was then carefully transferred to a fresh eppendorf tube without disturbing the pellet (˜180 uL). The protein concentration of the cell lysate was then determined by using a bicinchoninic acid (BCA assay) according to manufacturer's protocol (Thermo Fisher: Cat. #23227).
(§3) Cell lysate, approximately 25 ug-30 ug, was loaded per well in a 4-20% polyacrylamide gel (Biorad. Cat. #5671094). After running the dye front off of the gel, the gel was transferred to a nitrocellulose membrane (Biorad: Cat. #1704159) using the transblot turbo system (Biorad: Cat. #1704150) according to manufacturer's protocol. After transferring for 30 minutes, the membrane was blocked with 5% BSA for 1 hour at room temperature. The BSA was then washed off and the primary antibody of choice (1:500) was added, and the membrane was incubated with the primary antibody at 4° C. for overnight. The next morning, the primary antibody was removed and the membrane was washed with 1×-TBST for 10 minutes and repeated three more times. Following the last wash, a secondary antibody (Molecular Devices. Cat. #R8209 or R8208) was added at 1:5000 dilution and incubated for 1 hour at room temperature. Following the incubation with the secondary antibody, the membrane was washed with 1×-TBST for 10 minutes and repeated three more times. Following the last wash, the membrane was washed with de-ionized water twice and dried for at least two hours. Once the membrane is completely dry, the Molecular Devices Spectra Max western system was used to observe the bands. The western image was saved and the band density was measured with ImageJ software.
(A western blot detects proteins with antibodies after separation by electrophoresis.)

The next experiment addresses T2, MycC protein (Homo sapiens, UniProt P01106).
T2 construct: either 2×10^6 of L-363 (human leukemia cell line) or SKNBE2 (neuroblastoma cell line) cells; endogenous in cells; host or cells: L-363 / L363 human leukemia cells
As to the kind of experiment: Degradation of MycC protein, Western blot, L-363 cells (Example 160). To be noted: for inhibition at 2 µM: 6 h. Format: cell-based. As for the experimental part: as §1, §2, §3

Where only a bound is given, the exact number is not on record here.

This is an account of results in patent US20230322722A1, “MODULATORS OF MYC FAMILY PROTO-ONCOGENE PROTEIN” (Nalo Therapeutics, priority 2020, published 2023).

T2 sequence (P01106 whole entry): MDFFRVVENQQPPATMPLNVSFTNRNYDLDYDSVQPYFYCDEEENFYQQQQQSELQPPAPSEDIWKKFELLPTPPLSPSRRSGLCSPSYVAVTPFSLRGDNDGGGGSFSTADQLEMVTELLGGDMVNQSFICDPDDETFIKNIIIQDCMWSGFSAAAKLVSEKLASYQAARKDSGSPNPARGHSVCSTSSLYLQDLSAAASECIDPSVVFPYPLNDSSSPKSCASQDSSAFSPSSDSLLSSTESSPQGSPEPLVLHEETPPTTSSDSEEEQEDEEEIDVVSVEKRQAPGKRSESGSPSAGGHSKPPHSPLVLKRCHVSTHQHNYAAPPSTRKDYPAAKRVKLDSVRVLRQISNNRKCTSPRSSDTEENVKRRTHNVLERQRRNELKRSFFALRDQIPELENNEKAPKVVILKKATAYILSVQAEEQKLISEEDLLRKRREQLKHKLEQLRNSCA

One may read the inhibition as the relative decrease from the control value, in per cent. On to `CN(c1nccc(Nc2cc(C3CC3)[nH]n2)n1)[C@H]1CC[C@H](NC(=O)c2ccc(S(C)(=O)=O)cn2)CC1` [Compound 135, N-((1R,4R)-4-((4-((5-cyclopropyl-1H-pyrazol-3-yl)amino)pyrimidin-2-yl)(methyl)amino)cyclohexyl)-5-(methylsulfonyl)picolinamide], for which the inhibition at 2 µM against MycN protein (SKNBE2, 6 h) was under 20%; at MycC protein, 80 to 100%.

Consider `CN(c1nccc(Nc2cc(C3CC3)[nH]n2)n1)[C@H]1CC[C@H](NC(=O)c2cccc(S(C)(=O)=O)c2)CC1` [Compound 132, N-((1R,4R)-4-((4-((5-cyclopropyl-1H-pyrazol-3-yl)amino)pyrimidin-2-yl)(methyl)amino)cyclohexyl)-3-(methylsulfonyl)benzamide], for which the inhibition at 2 µM on MycN protein (SKNBE2, 6 h) fell in the range of 80 to 100%; against MycC protein it was 80 to 100%.

`CC(C(=O)Nc1cccc(S(C)(=O)=O)c1)N1CCC(N(C)c2nccc(Nc3cc(C4CC4)[nH]n3)n2)CC1` (stereo not shown) [Compound 9]: the inhibition at 2 µM against MycN protein (6 h) and against MycC protein was 80 to 100% each time.

Regarding `CN(c1nccc(Nc2cc(C3CC3)[nH]n2)n1)[C@H]1CC[C@H](NC(=O)C2CCCC(C(F)(F)F)C2)CC1` (stereo partly shown) [113 F2], the “% Degradation of MycN (SKNBE2) 6 h, 2 μM” value on MycN protein is “*** (degradation 50-79%)”. The “% Degradation of MycC (L-363) 6 h, 2 μM” value on MycC protein is listed as “*** (degradation 50-79%)”.

`CN(c1nccc(Nc2cc(C3CC3)[nH]n2)n1)[C@H]1CC[C@H](NC(=O)C2CCc3ccccc32)CC1` (stereo partly drawn) [Compound 112, N-((1R,4R)-4-((4-((5-cyclopropyl-1H-pyrazol-3-yl)amino)pyrimidin-2-yl)(methyl)amino)cyclohexyl)-2,3-dihydro-1H-indene-1-carboxamide]: the inhibition at 2 µM against MycN protein (SKNBE2, 6 h) lay in the range of 50 to 79%; on MycC protein, 80 to 100%.

With `CN(c1nccc(Nc2cc(C3CC3)[nH]n2)n1)[C@H]1CC[C@H](C(=O)NC2Cc3ccccc3C2)CC1` [Compound 119, (1R,4R)-4-((4-((5-cyclopropyl-1H-pyrazol-3-yl)amino)pyrimidin-2-yl)(methyl)amino)-N-(2,3-dihydro-1H-inden-2-yl)cyclohexane-1-carboxamide], the inhibition at 2 µM against MycN protein (6 h) and at MycC protein was 80 to 100% throughout.

For the compound `CN(c1nccc(Nc2cc(C3CC3)[nH]n2)n1)[C@H]1CC[C@H](NC(=O)Cc2ccnc(C(F)(F)F)c2)CC1` [Compound 123, N-((1R,4R)-4-((4-((5-cyclopropyl-1H-pyrazol-3-yl)amino)pyrimidin-2-yl)(methyl)amino)cyclohexyl)-2-(2-(trifluoromethyl)pyridin-4-yl)acetamide], the inhibition at 2 µM against MycN protein (SKNBE2, 6 h) is 20 to 49%; against MycC protein it was 20 to 49%.

In the case of `CN(c1cc(C2CC2)[nH]n1)c1ccnc(N(C)[C@H]2CC[C@H](NC(=O)C3Cc4ccccc4C3)CC2)n1` [Compound 110, N-((1R,4R)-4-((4-((5-cyclopropyl-1H-pyrazol-3-yl)(methyl)amino)pyrimidin-2-yl)(methyl)amino)cyclohexyl)-2,3-dihydro-1H-indene-2-carboxamide], the inhibition at 2 µM was under 20% against MycN protein (SKNBE2, 6 h) and 20 to 49% against MycC protein.

Consider `Cn1ncc2cc(C(=O)N[C@H]3CC[C@H](N(C)c4nccc(Nc5cc(C6CC6)[nH]n5)n4)CC3)ccc21` [Compound 118, N-((1R,4R)-4-((4-((5-cyclopropyl-1H-pyrazol-3-yl)amino)pyrimidin-2-yl)(methyl)amino)cyclohexyl)-1-methyl-1H-indazole-5-carboxamide], for which the inhibition at 2 µM is 50 to 79% on MycN protein (SKNBE2, 6 h) and 80 to 100% against MycC protein.

Take `CN(c1nccc(Nc2cc(C3CC3)[nH]n2)n1)[C@H]1CC[C@H](NS(=O)(=O)c2ccc(C#N)cn2)CC1` [Compound 156, 5-cyano-N-((1R,4R)-4-((4-((5-cyclopropyl-1H-pyrazol-3-yl)amino)pyrimidin-2-yl)(methyl)amino)cyclohexyl)pyridine-2-sulfonamide]: the inhibition at 2 µM against MycN protein (6 h) fell in the range of 50 to 79%; against MycC protein it was 80 to 100%.

`CN(c1nccc(Oc2cc(C3CCCC3)[nH]n2)n1)C1CCC(NC(=O)Cc2cccc(C(F)(F)F)c2)CC1` [Compound 131, N-((1R,4R)-4-((4-((5-cyclopentyl-1H-pyrazol-3-yl)oxy)pyrimidin-2-yl)(methyl)amino)cyclohexyl)-2-(3-(trifluoromethyl)phenyl)acetamide]: the inhibition at 2 µM is 20 to 49% against MycN protein (SKNBE2, 6 h) and under 20% against MycC protein.

On to `CN(c1nccc(Nc2cc(C3CC3)[nH]n2)n1)[C@H]1CC[C@H](NC(=O)c2cn(CC3(C)COC3)nn2)CC1` [Compound 150, N-((1R,4R)-4-((4-((5-cyclopropyl-1H-pyrazol-3-yl)amino)pyrimidin-2-yl)(methyl)amino)cyclohexyl)-1-((3-methyloxetan-3-yl)methyl)-1H-1,2,3-triazole-4-carboxamide], for which the inhibition at 2 µM at MycN protein (SKNBE2, 6 h) was 80 to 100%; against MycC protein, 80 to 100%.

Turning to `Cn1nc(Nc2ccnc(N(C)[C@H]3CC[C@H](NC(=O)C4Cc5ccccc5C4)CC3)n2)cc1C1CC1` [Compound 111, N-((1R,4R)-4-((4-((5-cyclopropyl-1-methyl-1H-pyrazol-3-yl)amino)pyrimidin-2-yl)(methyl)amino)cyclohexyl)-2,3-dihydro-1H-indene-2-carboxamide], the inhibition at 2 µM is 20 to 49% against MycN protein (SKNBE2, 6 h) and under 20% against MycC protein.

`CN(c1nccc(Nc2cc(C3CC3)[nH]n2)n1)C1CCN(CC(=O)Nc2cn(C3COC3)cn2)CC1` [Compound 10, 2-(4-((4-((5-cyclopropyl-1H-pyrazol-3-yl)amino)pyrimidin-2-yl)(methyl)amino)piperidin-1-yl)-N-(1-(oxetan-3-yl)-1H-imidazol-4-yl)acetamide]: the inhibition at 2 µM fell in the range of 50 to 79% against MycN protein (SKNBE2, 6 h) and 80 to 100% on MycC protein.

For `CN(c1nccc(Nc2cc(C3CC3)[nH]n2)n1)[C@H]1CC[C@H](NC(=O)Cc2cccc(C#N)n2)CC1` [Compound 125, 2-(6-cyanopyridin-2-yl)-N-((1R,4R)-4-((4-((5-cyclopropyl-1H-pyrazol-3-yl)amino)pyrimidin-2-yl)(methyl)amino)cyclohexyl)acetamide], the inhibition at 2 µM lay within 80 to 100% at MycN protein (SKNBE2, 6 h) and 80 to 100% on MycC protein.

For `CN(c1nccc(Nc2cc(C3CC3)[nH]n2)n1)[C@H]1CC[C@H](NC(=O)c2cn3ccccc3n2)CC1` [Compound 117, N-((1R,4R)-4-((4-((5-cyclopropyl-1H-pyrazol-3-yl)amino)pyrimidin-2-yl)(methyl)amino)cyclohexyl)imidazo[1,2-a]pyridine-2-carboxamide], the inhibition at 2 µM against MycN protein (SKNBE2, 6 h) was in the range of 80 to 100%; on MycC protein, 80 to 100%.

For `CN(c1nccc(Nc2cc(C3CC3)[nH]n2)n1)[C@H]1CC[C@H](NS(=O)(=O)c2cccc(C#N)c2)CC1` [Compound 154, 3-cyano-N-((1R,4R)-4-((4-((5-cyclopropyl-1H-pyrazol-3-yl)amino)pyrimidin-2-yl)(methyl)amino)cyclohexyl)benzenesulfonamide], the inhibition at 2 µM fell in the range of 50 to 79% against MycN protein (SKNBE2, 6 h) and 80 to 100% against MycC protein.
